Experimental findings from patent US11384063B2, “Modulators of estrogen receptor proteolysis and associated methods of use” (Arvinas Operations, Inc., priority 2017, dated 2022) are described below.

Molecules are shown by their SMILES. Some results are limits rather than exact numbers.

This experiment has as its target T1, ERα (Homo sapiens, UniProt P03372).
T1 sequence (P03372 1-595): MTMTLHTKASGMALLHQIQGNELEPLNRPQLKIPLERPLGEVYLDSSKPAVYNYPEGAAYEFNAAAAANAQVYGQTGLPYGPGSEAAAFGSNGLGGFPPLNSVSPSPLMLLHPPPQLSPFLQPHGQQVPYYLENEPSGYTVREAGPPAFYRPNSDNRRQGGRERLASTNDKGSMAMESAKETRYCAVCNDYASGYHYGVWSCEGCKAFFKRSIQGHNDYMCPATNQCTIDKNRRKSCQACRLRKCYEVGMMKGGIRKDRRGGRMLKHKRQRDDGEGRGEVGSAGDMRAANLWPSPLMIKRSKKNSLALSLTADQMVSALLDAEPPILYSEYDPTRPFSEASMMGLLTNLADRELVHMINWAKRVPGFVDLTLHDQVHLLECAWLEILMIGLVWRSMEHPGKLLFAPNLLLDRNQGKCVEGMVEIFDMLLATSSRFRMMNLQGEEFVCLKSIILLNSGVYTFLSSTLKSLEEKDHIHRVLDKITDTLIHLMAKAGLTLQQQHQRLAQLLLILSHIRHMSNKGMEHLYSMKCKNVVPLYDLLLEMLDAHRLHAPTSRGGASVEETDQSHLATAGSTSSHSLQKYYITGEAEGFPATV
Kind of experiment: ERE luciferase reporter gene assay in T47D-KBluc cells (target engagement). It is filed as cell-based. Further details: T47D human breast cancer cells stably transfected with estrogen responsive element/promoter/luciferase reporter gene; host or cells: T47D-KBluc cells. The following applies: 10% FBS, 24 hours, Table 3 cereblon centric PROTACs, read-out: ER-α Luciferase IC50. Summed up:
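T47D-KBluc breast cancer cells, which carry a stable ERE-luciferase reporter, were grown in RPMI with 10% FBS (about 10 pM estrogen) and exposed to PROTACs for 24 h. The 12-point, 3-fold series ran from 300 nM to 2 pM. Luciferase was read after lysis, and IC50 was fitted from duplicates.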
(In general: A reporter such as luciferase makes a cellular process visible.)
Turning to `O=C1CCC(N2Cc3cc(NCCCOCCCOCCCCOc4ccc(Oc5c(-c6ccc(Br)cc6)sc6cc(O)ccc56)cc4)ccc3C2=O)C(=O)N1` (stereo not shown) [Compound 173], the half-maximal inhibitory concentration (IC50) (commonly the midpoint of a concentration-inhibition curve) stood at 8 nM.

Take `O=C1CCC(N2C(=O)c3ccc(OCCCOCCCOCCCCOc4ccc(Oc5c(-c6ccc(Br)cc6)sc6cc(O)ccc56)cc4)cc3C2=O)C(=O)N1` (stereo not shown) [Compound 175]: the IC50 stood at 66.7 nM.

Take `O=C1CCC(N2C(=O)c3ccc(NCCCOCCCOCCCCOc4ccc(Oc5c(-c6ccc(Br)cc6)sc6cc(O)ccc56)cc4)cc3C2=O)C(=O)N1` (stereo not shown) [Compound 176]: the IC50 amounted to 28.7 nM.

In the case of `O=C1CCC(N2C(=O)c3ccc(N4CCN(CCC5CN(CCOc6ccc(Oc7c(-c8ccc(Br)cc8)sc8cc(O)ccc78)cc6)C5)CC4)cc3C2=O)C(=O)N1` (stereo not shown) [Compound 186], the IC50 is > 300 nM. In the case of `O=C1CCC(N2Cc3cc(N4CCC(CN5CCC(Oc6ccc(Oc7c(-c8ccc(C(F)(F)F)cc8)sc8cc(O)ccc78)cc6)CC5)CC4)ccc3C2=O)C(=O)N1` (stereo not shown) [Compound 187], the IC50 turned out to be 5.1 nM.

On to `O=C1CCC(N2C(=O)c3ccc(N4CCC(CN5CCC(Oc6ccc(Oc7c(-c8ccc(C(F)(F)F)cc8)sc8cc(O)ccc78)cc6)CC5)CC4)cc3C2=O)C(=O)N1` (stereo not shown) [Compound 188], for which the IC50 turned out to be 8.7 nM.

On to `O=C1CCC(N2C(=O)c3ccc(N4CC(CN5CCN(CCOc6ccc(Oc7c(-c8ccc(Br)cc8)sc8cc(O)ccc78)cc6)CC5)C4)cc3C2=O)C(=O)N1` (stereo not shown) [Compound 189], for which the IC50 was 3 nM.

On to `O=C1CCC(N2Cc3c(ccc(N4CCN(C5CCN(CCOc6ccc(Oc7c(-c8ccc(Br)cc8)sc8cc(O)ccc78)cc6)CC5)CC4)c3F)C2=O)C(=O)N1` (stereo not shown) [Compound 195], for which the IC50 is 2.9 nM. As to `O=C1CCC(N2Cc3cc(C4CCN(C5CCN(CCOc6ccc(Oc7c(-c8ccc(Br)cc8)sc8cc(O)ccc78)cc6)CC5)CC4)ccc3C2=O)C(=O)N1` (stereo not shown) [Compound 196], the IC50 came to 8.6 nM.

Consider `O=C1CCC(N2C(=O)c3ccc(CCCCN4CCCN(CCOc5ccc(Oc6c(-c7ccc(Br)cc7)sc7cc(O)ccc67)cc5)CC4)cc3C2=O)C(=O)N1` (stereo not shown) [Compound 197], for which the IC50 is 2.8 nM.

For the compound `O=C1CCC(N2Cc3cc(N4CCN(C5CC6(C5)CN(CCOc5ccc(Oc7c(-c8ccc(C(F)(F)F)cc8)sc8cc(O)ccc78)cc5)C6)CC4)ccc3C2=O)C(=O)N1` (stereo not shown) [Compound 198], the IC50 stood at 10.2 nM.

On to `O=C1CCC(N2Cc3cc(N4CCN(CC5CCN(CCOc6ccc(Oc7c(-c8ccc(C(F)(F)F)cc8)sc8cc(O)ccc78)cc6)CC5)CC4)ccc3C2=O)C(=O)N1` (stereo not shown) [Compound 200], for which the IC50 stood at 8.4 nM. Consider `O=C1CCC(N2C(=O)c3ccc(N4CCN(CC5CCN(CCOc6ccc(Oc7c(-c8ccc(C(F)(F)F)cc8)sc8cc(O)ccc78)cc6)CC5)CC4)cc3C2=O)C(=O)N1` (stereo not shown) [Compound 202], for which the IC50 is 14.8 nM. To `O=C1CCC(N2Cc3c(cc(F)c(N4CCN(C5CCN(CCOc6ccc(Oc7c(-c8ccc(C(F)(F)F)cc8)sc8cc(O)ccc78)cc6)CC5)CC4)c3F)C2=O)C(=O)N1` (stereo not shown) [Compound 203] belongs 4.7 nM; to `O=C1CCC(N2Cc3cc(N4CCN(CC5CCN(CCOc6ccc(Oc7c(-c8ccc(C(F)(F)F)cc8)sc8cc(O)ccc78)cc6)CC5)CC4)c(F)cc3C2=O)C(=O)N1` (stereo not shown) [Compound 204], 16.4 nM. Turning to `O=C1CCC(N2Cc3c(cc(F)c(N4CCN(C5CC6(C5)CN(CCOc5ccc(Oc7c(-c8ccc(C(F)(F)F)cc8)sc8cc(O)ccc78)cc5)C6)CC4)c3F)C2=O)C(=O)N1` (stereo not shown) [Compound 206], the IC50 was 13.3 nM.

As for `O=C1CCC(N2Cc3cc(N4CCN(CCCOc5ccc(Oc6c(-c7ccc(C(F)(F)F)cc7)sc7cc(O)ccc67)cc5)CC4)ccc3C2=O)C(=O)N1` (stereo not shown) [Compound 207], the IC50 was 11.4 nM. On to `O=C1CCC(N2Cc3c(ccc(N4CCN(CCCOc5ccc(Oc6c(-c7ccc(Br)cc7)sc7cc(O)ccc67)cc5)CC4)c3F)C2=O)C(=O)N1` (stereo not shown) [Compound 208], for which the IC50 worked out at 8.4 nM. Regarding `O=C1CCC(N2C(=O)c3ccc(N4CC(CN5CCC(c6ccc(Oc7c(-c8ccc(Br)cc8)sc8cc(O)ccc78)cc6)CC5)C4)cc3C2=O)C(=O)N1` (stereo not shown) [Compound 209], the IC50 worked out at 2.8 nM. Turning to `O=C1CCC(N2Cc3cc(N4CCN(CCOc5ccc(Oc6c(-c7ccc(Br)cc7)sc7cc(O)ccc67)cc5)CC4)ccc3C2=O)C(=O)N1` (stereo not shown) [Compound 210], the IC50 was 2.3 nM.

Take `O=C1CCC(N2C(=O)c3ccc(N4CCN(CCCCc5ccc(Oc6c(-c7ccc(Br)cc7)sc7cc(O)ccc67)cc5)CC4)cc3C2=O)C(=O)N1` (stereo not shown) [Compound 211]: the IC50 is 31.6 nM. Consider `O=C1CCC(N2C(=O)c3ccc(N4CCC(N5CC(Oc6ccc(Oc7c(-c8ccc(Br)cc8)sc8cc(O)ccc78)cc6)C5)CC4)cc3C2=O)C(=O)N1` (stereo not shown) [Compound 212], for which the IC50 was 15 nM.

Regarding `O=C1CCC(N2Cc3cc(N4CCN(CCCOc5ccc(Oc6c(-c7ccc(OC(F)(F)F)cc7)sc7cc(O)ccc67)cc5)CC4)c(F)cc3C2=O)C(=O)N1` (stereo not shown) [Compound 219], the IC50 turned out to be 19.1 nM. To `O=C1CCC(N2Cc3cc(N4CCN(CCCOc5ccc(Oc6c(-c7ccc(Br)cc7)sc7cc(O)ccc67)cc5)CC4)cc(F)c3C2=O)C(=O)N1` (stereo not shown) [Compound 222] belongs 8.9 nM; to `O=C1CCC(N2Cc3cc(N4CCC(N5CC(Oc6ccc(Oc7c(-c8ccc(Br)cc8)sc8cc(O)ccc78)cc6)C5)CC4)ccc3C2=O)C(=O)N1` (stereo not shown) [Compound 233], 2.1 nM; to `O=C1CCC(N2Cc3cc(N4CC(N5CCC(Oc6ccc(Oc7c(-c8ccc(Br)cc8)sc8cc(O)ccc78)cc6)CC5)C4)ccc3C2=O)C(=O)N1` (stereo not shown) [Compound 240], 1.2 nM.

`O=C1CCC(N2Cc3cc(N4CC(CN5CCC(c6ccc(Oc7c(-c8ccc(Br)cc8)sc8cc(O)ccc78)cc6)CC5)C4)ccc3C2=O)C(=O)N1` (stereo not shown) [Compound 241]: the IC50 is 6.7 nM.

For the compound `O=C1CCC(N2Cc3nc(N4CCN(CC5CCN(c6c(F)cc(Oc7c(-c8ccc(Br)cc8)sc8cc(O)ccc78)cc6F)CC5)CC4)ccc3C2=O)C(=O)N1` (stereo not shown) [Compound 242], the IC50 was 18.7 nM.
